Measurements from KR20140065554A, “안토시아닌을 포함하는 항염용 조성물” (대한민국(농촌진흥청장), priority 2012, dated 2014).

What was measured:
Assay type in all cases: cell-based
[1] = test system: LPS-induced NO production (LPS로 유도되는 NO의 생성); experiment: Anti-inflammatory effect assay of peak 2 anthocyanin: inhibition of LPS-induced NO production; conditions: p<0.05
[2] = test system: LPS-induced NO production in RAW 264.7 (RAW 264.7에서 LPS로 유도된 NO 생성); experiment: Inhibition of LPS-induced NO production in RAW 264.7; conditions: p<0.05
[3] = test system: HepG2; experiment: Protective effect against hydrogen peroxide (H2O2, 0.9 mM)-induced oxidative stress in HepG2; conditions: HepG2, H2O2 0.9mM, p<0.05

Row | Compound | inhibition at 1 µM ([1]; 1uM) [%] | inhibition at 10 µM ([1]; 10uM) [%] | inhibition of LPS-induced NO production [2] | cell protective effect against H2O2-induced oxidative stress [3]
1 | COc1cc(-c2[o+]c3cc(O)cc(O[C@@H]4O[C@H](CO)[C@@H](O)[C@H](O)[C@H]4O)c3cc2O[C@@H]2O[C@H](CO)[C@@H](O)[C@H](O)[C@H]2O[C@@H]2O[C@H](CO)[C@@H](O)[C@H](O)[C@H]2O)ccc1O (single isomer, unassigned) [Peak 2, Peonidin-3-sophoroside-5-glucoside] | 8 | 15 | 유의적으로 저해하였다 | 
2 | COc1cc(-c2[o+]c3cc(O)cc(O[C@@H]4O[C@H](CO)[C@@H](O)[C@H](O)[C@H]4O)c3cc2O[C@@H]2O[C@H](COC(=O)/C=C/c3ccc(O)c(O)c3)[C@@H](O)[C@H](O)[C@H]2O[C@@H]2O[C@H](COC(=O)/C=C/c3ccc(O)c(O)c3)[C@@H](O)[C@H](O)[C@H]2O)ccc1O (single isomer, unassigned) [Peak 12, Peonidin 3-(6", 6"'-dicaffeoyl sophoroside)-5-glucoside] |  |  |  | 유의적인 세포 보호 효과를 보였다
3 | Peonidin 3-p-hydroxybenzoyl sophoroside-5-glucoside [Peak 4] |  |  | 유의적으로 저해하였다 | 
